In PMC8159961, “Exploring protein hotspots by optimized fragment pharmacophores” (Nature Communications, 2021):

Columns and labels:
human 5-HT7b receptor = target: T1, human 5-HT7b receptor (Homo sapiens, UniProt P34969); experiment: GPCR radioligand binding assay, [3H]-5-CT displacement, HEK293 membranes; settings: for 5-HT7 % Inhibition by plate position: 10 µM; for %inh 5-HT7 exp_1: replicate exp_1; for %inh 5-HT7 exp_2: replicate exp_2; for %inh 5-HT7 average: average of exp_1 and exp_2
T1 construct: expressed in transfected cells
T1 sequence (P34969 1-432): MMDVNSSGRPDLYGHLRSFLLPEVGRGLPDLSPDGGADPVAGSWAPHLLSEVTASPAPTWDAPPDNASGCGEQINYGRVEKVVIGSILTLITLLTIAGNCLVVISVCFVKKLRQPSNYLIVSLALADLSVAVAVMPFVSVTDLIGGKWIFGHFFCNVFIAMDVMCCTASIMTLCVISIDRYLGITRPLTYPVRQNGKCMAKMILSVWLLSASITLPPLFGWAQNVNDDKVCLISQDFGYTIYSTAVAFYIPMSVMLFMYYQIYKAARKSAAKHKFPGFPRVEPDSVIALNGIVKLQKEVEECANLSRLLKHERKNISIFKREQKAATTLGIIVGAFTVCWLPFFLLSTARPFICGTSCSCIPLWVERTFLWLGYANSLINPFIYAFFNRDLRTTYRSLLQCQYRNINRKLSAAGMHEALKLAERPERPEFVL

human 5-HT1A receptor = target: T2, human 5-HT1A receptor (Homo sapiens, UniProt P08908); experiment: GPCR radioligand binding assay, [3H]-8-OH-DPAT displacement, HEK293 membranes; settings: for %inh 5-HT1A average: average of exp_1 and exp_2; for %inh 5-HT1A corrected*: average, values below 0 and above 100% were set as 0 and 100; for %inh 5-HT1A exp_1: replicate exp_1; for %inh 5-HT1A exp_2: replicate exp_2; for 5-HT1A % Inhibition by plate position: 10 µM
T2 construct: expressed in transfected cells
T2 sequence (P08908 1-422): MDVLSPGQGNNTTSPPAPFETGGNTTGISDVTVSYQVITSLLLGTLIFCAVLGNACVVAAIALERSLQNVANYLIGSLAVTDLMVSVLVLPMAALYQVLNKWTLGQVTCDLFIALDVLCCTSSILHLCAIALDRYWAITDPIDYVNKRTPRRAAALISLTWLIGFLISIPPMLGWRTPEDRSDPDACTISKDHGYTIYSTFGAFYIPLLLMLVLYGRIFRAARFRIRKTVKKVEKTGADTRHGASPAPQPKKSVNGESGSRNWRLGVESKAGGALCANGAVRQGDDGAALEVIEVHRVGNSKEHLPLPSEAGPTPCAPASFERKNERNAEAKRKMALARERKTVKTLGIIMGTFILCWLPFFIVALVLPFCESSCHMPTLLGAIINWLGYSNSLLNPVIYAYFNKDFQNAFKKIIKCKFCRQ

human 5-HT6 receptor = target: T3, human 5-HT6 receptor (Homo sapiens, UniProt P50406); experiment: GPCR radioligand binding assay, [3H]-LSD displacement, HEK293 membranes; settings: for 5-HT6 % Inhibition by plate position: 10 µM; for %inh 5-HT6 average: average of exp_1 and exp_2; for %inh 5-HT6 corrected*: average, values below 0 and above 100% were set as 0 and 100; for %inh 5-HT6 exp_1: replicate exp_1; for %inh 5-HT6 exp_2: replicate exp_2
T3 construct: expressed in transfected cells
T3 sequence (P50406 whole entry): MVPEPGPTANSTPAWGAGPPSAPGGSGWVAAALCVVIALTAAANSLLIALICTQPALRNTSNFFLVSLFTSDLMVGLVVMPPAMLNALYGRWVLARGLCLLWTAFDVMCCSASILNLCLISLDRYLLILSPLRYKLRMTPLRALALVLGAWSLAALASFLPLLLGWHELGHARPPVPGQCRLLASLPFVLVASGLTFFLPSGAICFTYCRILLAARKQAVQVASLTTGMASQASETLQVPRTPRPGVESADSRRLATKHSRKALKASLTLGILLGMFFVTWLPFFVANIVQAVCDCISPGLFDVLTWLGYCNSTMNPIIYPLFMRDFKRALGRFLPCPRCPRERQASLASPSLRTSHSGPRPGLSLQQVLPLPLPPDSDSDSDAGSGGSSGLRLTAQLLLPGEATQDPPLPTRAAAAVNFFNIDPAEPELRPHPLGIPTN

SMILES | 5-HT7 % Inhibition by plate position (human 5-HT7b receptor) [%] | %inh 5-HT7 exp_1 (human 5-HT7b receptor) [%] | %inh 5-HT7 exp_2 (human 5-HT7b receptor) [%] | %inh 5-HT1A average (human 5-HT1A receptor) [%] | %inh 5-HT1A corrected* (human 5-HT1A receptor) [%] | %inh 5-HT1A exp_1 (human 5-HT1A receptor) [%] | %inh 5-HT1A exp_2 (human 5-HT1A receptor) [%] | 5-HT6 % Inhibition by plate position (human 5-HT6 receptor) [%] | %inh 5-HT6 average (human 5-HT6 receptor) [%] | %inh 5-HT6 corrected* (human 5-HT6 receptor) [%] | %inh 5-HT6 exp_1 (human 5-HT6 receptor) [%] | %inh 5-HT6 exp_2 (human 5-HT6 receptor) [%] | %inh 5-HT7 average (human 5-HT7b receptor) [%] | 5-HT1A % Inhibition by plate position (human 5-HT1A receptor) [%]
CCN(CC)c1cccc(C)c1 [E4] | 7.56 | 12 | 2.81 | 8.49 | 8.49 | 13 | 4 | 31 | 31 | 31 | 31 | 32 | – | –
O=C(CN1CCNCC1)c1ccccc1 [E5] | 8 | 14 | 3 | 6 | 6 | 9.52 | 3 | 49 | 49 | 49 | 45 | 54 | – | –
Clc1ccc2nnnn2n1 [E6] | 0 | -5 | -20 | 3.55 | 3.55 | 3.18 | 4 | 35 | 35 | 35 | 38 | 31 | -13 | –
c1cnc2c(c1)NCCC2 [E7] | 0 | 6 | -14 | 12 | 12 | 15 | 9 | 28 | 28 | 28 | 28 | 29 | -3.73 | –
COc1cccc(NC2=NCCCCC2)c1 [E8] | 0 | 3.36 | -13 | 11 | 11 | 11 | 11 | 14 | 14 | 14 | 17 | 12 | -5 | –
N#Cc1ccc(C(=O)N2CCOCC2)cc1 [E10] | 9 | 10 | 7 | -13 | – | -3 | -23 | 37 | 37 | 37 | 33 | 41 | – | 0
Oc1ccc(C2CCNCC2)cc1 [E11] | 11 | 10 | 12 | 5.37 | 5.37 | 3 | 8 | 43 | 43 | 43 | 44 | 42 | – | –
COC(=O)c1c(C)nc(C2CC2)[nH]c1=O [F1] | 23 | 23 | 22 | 16 | 16 | 17 | 15 | 41 | 41 | 41 | 38 | 44 | – | –
N#CC1CCS(=O)(=O)C1 (stereo not shown) [F2] | 20 | 21 | 19 | -0.934 | – | 12 | -14 | 22 | 22 | 22 | 22 | 22 | – | 0
N#CCCN1CCc2ccccc21 [F4] | 3 | 1.81 | 4.42 | -7 | – | -1.29 | -12 | 23 | 23 | 23 | 26 | 20 | – | 0
O=C(O)c1cccc(Nc2ncccn2)c1 [F5] | 12 | 11 | 13 | 10 | 10 | 9 | 11 | 50 | 50 | 50 | 58 | 42 | – | –
O=C(Nc1ccccc1)C1CC1 [F6] | 0 | -1.55 | -4 | 12 | 12 | 10 | 14 | 41 | 41 | 41 | 40 | 42 | -2.69 | –
Oc1nnc(-c2ccccc2)o1 [F7] | 1 | -12 | 14 | -4 | – | 1.6 | -10 | 14 | 14 | 14 | 15 | 14 | – | 0
Cc1nccn1Cc1cccc(C#N)c1 [F8] | 9 | 14 | 3.57 | 10 | 10 | 7 | 13 | 41 | 41 | 41 | 40 | 42 | – | –
CC(CN)N1CCc2sccc2C1 (stereo not shown) [F9] | 8 | 13 | 3.54 | 33 | 33 | 30 | 36 | 15 | 15 | 15 | 14 | 17 | – | –
NCC1(c2ccccc2)CCOCC1 [F10] | 6 | -0.903 | 13 | 11 | 11 | 10 | 12 | 23 | 23 | 23 | 20 | 25 | – | –
Oc1cnc(-c2ccccc2)nc1 [F11] | 0.572 | -8 | 9 | 6.48 | 6.48 | 14 | -1.43 | 41 | 41 | 41 | 42 | 39 | – | –
Cc1cc(C)c2c(=O)[nH]n(C)c2n1 [F12] | 11 | 14 | 7 | 5.64 | 5.64 | 4.73 | 6.55 | 34 | 34 | 34 | 35 | 32 | – | –
COc1ccc(C2=CCNCC2)cc1 [G1] | 19 | 17 | 20 | 17 | 17 | 14 | 20 | 49 | 49 | 49 | 49 | 49 | – | –
